In paper PMC8246065 (The EMBO Journal, 2021):

Tests used:
[1] = tested on: NOD1/2-RIP2 interaction; assay: GFP immunoprecipitation of NOD1/2 and Western blot for RIP2; assay type: cell-based, human; conditions: S1P 20 µM with digitonin, 1 h
Method: HeLa NOD1 or NOD2 cells were grown overnight and afterward treated with doxycycline overnight to induce NOD1 or NOD2 expression. Cells of one 10‐cm dish were lysed with 500 µl of lysis buffer (25 mM Tris–HCl, pH 7.5, 150 mM NaCl, 1 mM EDTA, 1% NP‐40, and 5% glycerol) supplemented with protease inhibitors (Roche, 05892791001) on ice for 20 min. Lysates were centrifuged at 16,000 × g at 4°C for 10 min, and supernatants were mixed with GFP‐Trap agarose (ChromoTek GmbH, gta‐20) overnight at 4°C. Afterward, agaroses were washed twice with PBS and boiled with sample buffer for SDS–PAGE. For lipid‐coated beads IP, lipid‐coated beads were incubated with supernatants for 2 h at room temperature and then washed with lysis buffer for three times and boiled with sample buffer for SDS–PAGE.

[2] = tested on: HEK293T WT and NOD1/2 KO NF‐κB reporter cells; assay: NF-κB luciferase assay and IL8 qRT-PCR in HEK293T WT and NOD1/2 KO cells; assay type: cell-based, human; conditions: cytosolic S1P, HEK293T WT vs NOD1/2 KO
Method: HEK293T WT and NOD1/2 KO NF‐κB reporter cells were seeded in 96‐well plates and stimulated with various stressors for 8 h. Then, cells were lysed in lysis buffer (Thermo Fisher Scientific) and luciferase activities were determined with firefly luciferase glow kit (Thermo Fisher Scientific) according to the manufacturer’s instructions. Luciferase activities were normalized to the amount of protein determined with Coomassie Plus kit (Thermo Fisher Scientific). Fold inductions were calculated against normalized luciferase activities of corresponding controls.
Total RNA was isolated with TRIzol reagent, as described by the manufacturer (Invitrogen). RNA (1 μg) was used to generate cDNA via the iScript cDNA Synthesis Kit (Bio‐Rad), and qRT–PCR was performed using Power SYBR Green Master Mix (Applied Biosystems) in a StepOne Plus thermocycler (Applied Biosystems). The average threshold cycle (Ct) of quadruplicate reactions was employed for all subsequent calculations using the ΔΔCt method. Gene expression was normalized to glyceraldehyde‐3‐phosphate dehydrogenase (GAPDH), and fold changes were calculated against corresponding controls. qRT–PCR data were representative of at least three independent experiments, with at least 2 technical replicates per experiment. […]

[3] = target: T1, NOD1∆CARD (Homo sapiens, UniProt Q9Y239); assay: MST with cell lysates expressing NOD1 mutants; assay type: binding; conditions: Fig EV5D
T1 sequence (Q9Y239 196-953 limits assumed): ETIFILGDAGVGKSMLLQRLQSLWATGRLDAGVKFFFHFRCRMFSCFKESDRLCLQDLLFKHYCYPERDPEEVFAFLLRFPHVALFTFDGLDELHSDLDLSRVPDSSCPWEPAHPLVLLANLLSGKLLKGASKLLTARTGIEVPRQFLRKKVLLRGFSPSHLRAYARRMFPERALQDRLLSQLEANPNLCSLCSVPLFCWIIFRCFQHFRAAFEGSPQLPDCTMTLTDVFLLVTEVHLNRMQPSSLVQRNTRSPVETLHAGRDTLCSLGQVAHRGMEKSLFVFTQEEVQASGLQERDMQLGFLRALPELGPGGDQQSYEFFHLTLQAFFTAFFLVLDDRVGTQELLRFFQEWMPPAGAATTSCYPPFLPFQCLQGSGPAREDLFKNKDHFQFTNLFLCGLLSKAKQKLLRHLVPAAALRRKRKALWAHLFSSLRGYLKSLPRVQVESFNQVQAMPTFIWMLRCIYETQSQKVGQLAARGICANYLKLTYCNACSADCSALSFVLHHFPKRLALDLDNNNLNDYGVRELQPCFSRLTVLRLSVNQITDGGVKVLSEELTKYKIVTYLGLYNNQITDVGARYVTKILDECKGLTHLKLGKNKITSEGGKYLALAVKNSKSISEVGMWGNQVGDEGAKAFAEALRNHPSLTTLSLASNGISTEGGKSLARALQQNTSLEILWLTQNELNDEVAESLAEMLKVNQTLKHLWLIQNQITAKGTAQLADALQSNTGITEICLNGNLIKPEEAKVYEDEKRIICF
Method: Binding of NOD1, NOD2, GFP, or NLRP3‐GFP to different ligands was measured by microscale thermophoresis (MST). 20 nM GFP or GFP‐tagged proteins in MST buffer (PBS pH 7.4, containing 0.5% NP‐40 and 10 mM DTT) was incubated with different concentrations of ligands. Immediately, samples were loaded into standard glass capillaries (NanoTemper) and thermophoresis analysis was performed on a NanoTemper Monolith NT.115 instrument (40% LED, 80% MST power) at 22°C. A laser on‐time of 30 s and a laser off‐time of 5 s were used. The experiment was performed in triplicates, and the MST curves were fitted using NT analysis software to obtain the K d values.

[4] = tested on: NOD1/2; assay: dSTORM imaging of HeLa NOD1 or NOD2 cells; assay type: cell-based, human; conditions: S1P 20 µM, 2 h
Method: For dSTORM, HeLa inducible NOD1‐GFP or NOD2‐GFP cells were grown on µ‐Slides with glass bottom (ibidi, Germany) and treated with doxycycline overnight to induce NOD1‐GFP or NOD2‐GFP expression. […] Then, cells were fixed with 4% (v:v) paraformaldehyde in PBS, pH 7.4 for 10 min at room temperature (RT). After washing twice with PBS, cells were incubated with 50 mM glycine in PBS, pH 7.4 for 10 min and permeabilized with 0.05% saponin (Sigma‐Aldrich, 47036), 1% BSA in PBS for 10 min. Rabbit anti‐GFP antibody (ChromoTek) and Alex Fluor 647‐conjugated goad anti‐rabbit antibody (Thermo Fisher Scientific) were diluted in PBS and incubated for 1 h at room temperature. The super resolution imaging was performed with Nanoimager S (Oxford Nanoimaging). For single particle tracking in live cells, Nanoimager S was pre‐warmed at 37°C. […] Medium was then replaced with fresh DMEM without phenol red. Live imaging was performed with Nanoimager S at acquisition speed of 100fps.

## CCCCCCCCCCCCC/C=C/[C@@H](O)[C@@H](N)COP(=O)(O)O [S1P, sphingosine‐1‐phosphate]
[1]
  Interaction between NOD1/2 and RIP2: stimulated the interaction between NOD1/2 and RIP2
[2]
  NF-κB activation and IL8 expression: induced NOD1/2‐dependent NF‐κB activation and IL8 expression
[3]
  Interaction with NOD1∆CARD by MST: still interacted
[4]
  Oligomerization of NOD1/2: oligomerization of NOD1/2 induced
